In US20240207308A1, “METHOD FOR CULTURING DENDRITIC CELLS” (NANOFAENTECH CO., LTD., priority 2021, published 2024):

Experiments:
Assay type in all cases: cell-based, mouse
[1] = test system: spleen dendritic cells; test: Flow cytometry of CD86, MHC-II, CD80, CD40 on cultured spleen dendritic cells (self-activation); conditions: for increase in the expression of CD86: each at 800 μg/mL, 24 hours; for increase in the expression of CD86 / increase in CD86 expression by self-activation: 2×10^5/mL cells; for increase in CD86 expression by self-activation: different concentrations up to 800 μg/mL
Method: Mouse spleen dendritic cells were obtained by adding EDTA-BSS (Balanced Salt Solution) buffer and collagenase solution (DMEM containing 100 units of collagenase type IV, medium containing low glucose) to spleens of female C57BL/6 mice and cutting it with surgical scissors, mixing the same with 6 mL of collagenase treatment solution, and incubating the mixture for 30 minutes. The separated whole spleen tissue was filtered using a 70 μm cell strainer (Falcon), followed by centrifugation at 1800 rpm for 5 minutes thus to separate the cells. Red blood cells were removed by adding red blood cell lysis buffer (Sigma-Aldrich) to the cells and washed twice with RPMI-1640 medium containing 10% fetal bovine serum (FBS). Dendritic cells were reacted with CD11c^+ antibody-bound microbeads and isolated using CD11c Microbeads Ultrapure (MACS, Milteni Biotec, USA).
In FIG. 2, in order to determine whether self-activation occurs when primary dendritic cells isolated from the spleen are cultured, dendritic cells were dispensed in a 24-well plate at 2×10^5/mL, and after culturing for 6 hours in RPMI-1640 medium at 37° C. under 5% CO2 condition, the expression levels of MHC-II, CD86, CD80 and CD40 were analyzed on the surface of dendritic cells using a flow cytometer (MACSQuant VYB flow cytometer, Miltenyi Biotec). Results measured using a flow cytometer were analyzed using FlowJo v10 (Tree Star, Ashland). The expression levels of CD86, CD80 and CD40 were shown as the percentage of cells stained with CD11c, and the expression level of MHC-II was shown as mean fluorescence intensity (MFI), which is the mean fluorescence intensity of fluorescence.
In FIG. 7, when culturing spleen dendritic cells, each of the prepared peptides was added at a concentration of 200 μg/mL and the expression level of CD86 was measured 6 hours after culture. When each peptide was used alone for treatment, the expression of CD86 was not inhibited in spleen dendritic cells. […] Compared to when the cells were treated with these three kinds of peptides, the expression was not inhibited even when the two kinds of peptides were used together for treatment. * indicates statistical significance as P<0.05 or less compared to the P1, P1-2, and P2-1 conditions.
In FIG. 9, peptides containing P1 and P2 and amino acids of these peptides as well as P3 peptide in a combination of three types were added to the spleen dendritic cell culture medium, and after culturing for 6 hours, the expression level of CD86 was measured by flow cytometry.
In FIG. 24, different concentrations of LP1, LP2 and LP3 were added to reach a concentration of 800 μg/mL, and spleen dendritic cells (2×10^5/mL) were cultured for 6 hours or 24 hours, and the CD86 expression level was measured by flow cytometry (MACSQuant VYB flow cytometer, Miltenyi Biotec). The measured results were analyzed using FlowJo v10 (Tree Star, Ashland).
In FIG. 25, when spleen primary dendritic cells were dispensed at 2×10^5/mL and cultured for 24 hours while scrambled peptides of S-LP1, S-LP2 and S-LP3 were each added at a concentration of 800 μg/mL, the increase in the expression of CD86 was not inhibited. Further, the expression of CD86 was not reduced even when the scrambled peptides S-P1, S-P2 and S-P3 were simultaneously treated at a concentration of 600 μg/mL, respectively.

[2] = test system: spleen primary dendritic cells; test: ELISA of TNF-α / IL-12p40 secreted by cultured spleen primary dendritic cells; conditions: cells 2×10^5/mL, 24 hours, without LPS
Method: In FIG. 12, spleen primary dendritic cells were dispensed at 1×10^6/mL and cultured for 24 hours, and then a concentration of TNF-α secreted from these cells in the culture medium was measured. As a result, it was confirmed that the secretion increased in a time-dependent manner. The concentration of TNF-α was measured at 450 nm using an ELISA kit (R&D systems) and a microplate analyzer (Synergy H1, Biotek). However, when dendritic cells were dispensed at 2×10^5/mL, CD86 expression was increased but TNF-α secretion was not increased (results not presented). * indicates statistical significance as P<0.05 or less compared with 3 h.
In FIG. 13, spleen primary dendritic cells were dispensed at 1×10^6/mL and cultured for 24 hours. […] Furthermore, when P4, P5 and P6 peptides were added at a concentration of 200 μg/mL, respectively, the secretion of TNF-α was not inhibited.
Therefore, it could be seen that fibronectin has a disadvantage of inhibiting the activation by stimulants although can maintain the inactivation of spleen dendritic cells. * indicates statistical significance as P<0.05 or less compared to -LPS.
In FIG. 27, an ELISA kit (R&D systems) was used to measure the concentration of TNF-α secreted into the culture medium when spleen primary dendritic cells were dispensed at 2×10^5/mL and cultured for 24 hours. The concentration was determined at 450 nm by a microplate analyzer (Synergy H1, Biotek).

[3] = test system: spleen dendritic cells; test: Fluorescence staining of CD86 in spleen dendritic cells, confocal microscope; conditions: without LPS, linker peptides 400 μg/mL, 24 hours
Method: In FIG. 11, culturing spleen dendritic cells (2×10^5/mL) and the prepared peptides were added at a concentration of 200 μg/mL, respectively, and after 6 hours, the expression level of CD86 using a PE-conjugated anti-CD86 antibody (eBioscience) was measured through a confocal microscope after fluorescence staining. After culturing spleen primary dendritic cells for a certain period of time, intracellular CD86, F-actin and nuclear staining was implemented. Expression of actin was stained with FITC-conjugated phalloidin (eBioscience), and nuclear staining was conducted with Hoechst 33342 (Sigma-Aldrich). For this purpose, cells cultured in a 48-well plate were placed in a 4% paraformaldehyde fixing solution, and then fixed at room temperature for 20 minutes.
Then, after washing twice with phosphate buffered saline solution, it was permeabilized with 0.1% Triton X-100 (Sigma-Aldrich) solution at room temperature for 5 minutes and washed twice with phosphate buffered saline solution. In order to remove non-specific staining, after reacting with 0.2% bovine serum albumin (Sigma-Aldrich) solution at room temperature for 20 minutes, it was washed twice with phosphate buffered saline solution. After that, the anti-CD86 antibody and phalloidine were diluted in 0.2% bovine serum albumin solution at a ratio of 1:40 and reacted for 40 minutes, washed 3 times with Tris buffer, placed on a slide glass, followed by counter-staining with Hoechst 33342 solution for nuclear staining of cells. After sealing with a cover glass, the cells were observed using a confocal laser microscope (K1 nanoscope).
In FIG. 26, spleen dendritic cells (2×10^5/mL) were dispensed in a 48-well plate, and linker peptides were each added at a concentration of 400 μg/mL, followed by culturing for 24 hours. Activation of spleen dendritic cells was induced by adding 1 μg/mL of LPS to the culture medium. The cultured cells were placed in a 4% paraformaldehyde fixing solution and fixed at room temperature for 20 minutes. After fluorescence staining using PE-conjugated anti-CD86 antibody (eBioscience), it was measured with a confocal microscope (K1 Nanoscope, Korea). Intracellular actin expression was stained with FITC-conjugated phalloidin (eBioscience), and nuclear staining was conducted with Hoechst 33342 (Sigma-Aldrich). CD86 antibody and phalloidin were diluted 1:40 in 0.2% bovine serum albumin solution and used.

[4] = test system: spleen T cells from Balb/c mice; test: Mixed lymphocyte reaction: proliferation of CFSE-stained allogeneic T cells co-cultured with spleen dendritic cells; conditions: dendritic cells without peptide or fibronectin, activated with the stimulant, compared to control
Method: Since the main role of activated dendritic cells is to induce antigen-specific T-cell activation and proliferation according to the stimulatory properties, it was investigated whether self-activated dendrite cells after culturing and dendritic cells activated with LPS after culturing with addition of peptides can induce T cell proliferation by mixed lymphocyte reaction (MLR) test. The spleen dendritic cells isolated from C57B/L6 mice were self-activated for 24 hours, otherwise, when cultured with addition of peptides or fibronectin, the cells were treated with LPS and activated. Spleen T cells from Balb/c mice were isolated using a CD4^+/CD8^+ T cell isolation kit (Miltenyi Biotec, Bergisch-Gladbach, Germany) and MACS column (Miltenyi Biotec), followed by 10 μM CFSE staining (Molecular Probes; Thermo Fisher Scientific Inc., USA). The activated dendritic cells and CFSE-stained T cells were co-cultured at a ratio of 1:20 for 4 days, and the T cell proliferation level was measured as a percentage of cells with decreased CFSE. […] In FIG. 22, the amount of cytokines secreted after co-culture of spleen dendritic cells and T cells for 4 days was measured by ELISA method. […]

Substance	increase in the expression of CD86 [1]	increase in CD86 expression by self-activation ([1]; 6 hours or 24 hours)	TNF-α secretion [2]	CD86-expressing cells [3]	other results
NRPHSGGGSDRGGGGSVDL (Scrambled linker peptide S-LP2) [scrambled linker peptide, control, reference compound]	not inhibited				
NRPHSGGGSGGGSDRGGGGSVDL (Scrambled linker peptide S-LP3) [scrambled linker peptide, control, reference compound]	not inhibited				
NRPHSGSDRGGSVDL (Scrambled linker peptide S-LP1) [scrambled linker peptide, control, reference compound]	not inhibited				
PHSRNGGGSGGGSRGDGGGSLDV (Linker peptide LP3)		inhibited	hardly occurred	almost not observed	self-activation inhibitory effect compared among LP1, LP2 and LP3 ([1]; up to 800 μg/mL, 6 hours or 24 hours): greatest self-activation inhibitory effect
PHSRNGGGSRGDGGGSLDV (Linker peptide LP2)		inhibited	hardly occurred	almost not observed	
PHSRNGSRGDGSLDV (Linker peptide LP1)		inhibited	hardly occurred	almost not observed	
Pro-His-Ser-Arg-Asn (PHSRN; Fibronectin motif P3) [Peptide P3]					expression level of CD86 ([1]; treated alone at 600 μg/mL, 6 hours): no inhibitory effect
laminin					expression level of CD86 or MHC-II (self-activation) ([1]; 200 μg/mL (laminin 200 μg/mL or higher), cultured 6 hours): self-activation was not inhibited; expression of MHC-II, CD80 and CD40 in addition to CD86 ([1]; cultured 6 hours or 24 hours, peptides 200 μg/mL each): no effect was observed
polyinosinic:polycytidylic acid [poly (I:C), reference compound]					proliferation of co-cultured spleen T cells [4]: slightly increased
